Measurements as given in patent US12422427B2, “Compounds for treatment of diseases and methods of screening therefor” (Max-Planck-Gesellschaft zur Förderung der Wissenschaften …, priority 2018, dated 2025).

Legend:
FUS GFP [1] = biological target: T1, FUS GFP (Homo sapiens, UniProt P35637); test: In vitro purified FUS GFP droplet screen; assay type: biochemical; conditions: low salt conditions, 1 mM DTT, up to 100 μM compound
T1 construct: His MBP (N, cleaved yes); made in house; host or cells: baculovirus/insect cell expression system
T1 sequence (P35637 1-526): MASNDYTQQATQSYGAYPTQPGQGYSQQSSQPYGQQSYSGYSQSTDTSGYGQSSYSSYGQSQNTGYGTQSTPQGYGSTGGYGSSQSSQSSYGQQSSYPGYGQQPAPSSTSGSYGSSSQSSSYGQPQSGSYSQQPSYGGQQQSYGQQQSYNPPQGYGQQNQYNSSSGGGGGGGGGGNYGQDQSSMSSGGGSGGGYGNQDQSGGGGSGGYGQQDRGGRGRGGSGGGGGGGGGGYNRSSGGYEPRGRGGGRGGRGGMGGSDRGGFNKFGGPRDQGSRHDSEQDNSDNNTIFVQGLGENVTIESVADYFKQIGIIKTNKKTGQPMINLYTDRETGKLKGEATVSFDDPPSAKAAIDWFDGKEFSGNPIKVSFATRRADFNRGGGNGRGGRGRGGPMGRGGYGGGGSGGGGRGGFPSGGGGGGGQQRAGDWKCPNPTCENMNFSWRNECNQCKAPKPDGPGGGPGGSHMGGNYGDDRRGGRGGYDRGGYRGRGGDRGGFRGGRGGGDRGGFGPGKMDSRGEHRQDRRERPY
Method: Compounds that can directly interact with FUS were of primary interest, therefore the inventors performed a follow up screen for action of compounds on FUS droplet formation in vitro (FIG. 1D). […] Hits were identified by the effect on number of FUS droplets formed and the partition of FUS into the droplets formed under low salt conditions in vitro in the presence of 1 mM DTT to mimic the reducing intracellular environment (FIG. 1E).
The effect of compounds on FUS GFP droplets in vitro was assessed in 384 well plate format. The compound volume (in DMSO) necessary for 1, 3, 10, 30 or 100 μM final concentration were added by acoustic dispensing (Labcyte Echo 550) to 96 well plate wells containing 3 μl FUS GFP diluted in 50 mM Tris. HCl pH 7.4, 1 mM DTT (for low salt assays). Final DMSO concentration was 0.01 to 1%. Using a Freedom Evo 200 liquid handling workstation (TECAN) the FUS GFP/compound mixture was diluted in 7 μl assay buffer containing 50 mM Tris. HCl pH 7.4, 1 mM DTT, 50 mM KCl and 0.7 μM FUS GFP. Compound/FUS GFP and assay buffer were mixed by a standardised pipetting procedure then split to four wells in clear bottom 384 well plates then immediately imaged using a CellVoyager CV7000 automated spinning disc confocal microscope (as above). […] Droplet number and FUS GFP partition into droplets were analysed with a fixed intensity threshold using ImageJ.

[2] = test system: HeLa cells expressing FUS GFP; test: HeLa cell compound dose responses (FUS GFP, arsenate stress); assay type: cell-based; conditions: 1 h pre-treatment, 1 h arsenate stress
Method: Small dilution steps rather than concentration replicates were selected as it provides greater statistical power from a set number of samples. Final DMSO concentration was 0.08% in all samples, and each plate included at least 12 control wells with 0.08% DMSO. Cytoplasmic FUS droplet number and nuclear/cytoplasm partition of FUS were analysed using custom macros in ImageJ. Nuclei were identified by intensity thresholding of the blue fluorescence image following a 5 px Gaussian blur. Cytoplasmic FUS droplets by intensity thresholding of the green image following a 10 px weight 0.9 unsharp filter masked by the thresholded nuclei, and nuclear FUS droplets by intensity thresholding of the green image following a 5 px weight 0.9 unsharp filter and 10 px rolling ball background subtraction masked to only include thresholded nuclei. The ratio of cytoplasmic FUS drops to nuclei was taken as cytoplasmic FUS droplets per cell per field of view, and p, the ratio of partition of FUS to the nucleus and the cytoplasm, was derived from a=Vn/vt, the ratio of nuclear to total green signal per field of view, where p=a/(1−a). […] Six fields of view were captured and analysed per condition.

[3] = test system: P bodies, Cajal bodies, PML bodies, DNA damage foci, nucleolus; test: Effect on other non-membrane bound compartments in HeLa GFP marker lines; assay type: cell-based
Method: FIG. 4A) Images of HeLa cells expressing Protein GFP markers of other non-membrane bound compartments subject to 1 h treatment with 10 μM compound (or DMSO control). Where unclear, the position of nuclei is indicated with a dotted outline. […] FIG. 4B) Recruitment of FUS GFP to sites of UV laser-induced DNA damage in iPS cells after 1 h treatment with compound followed by 1 h arsenate stress.
Stress granules are one of several, similar, cytoplasmic RNA-containing liquid-like compartments. […] Several stress granule proteins also form nuclear bodies: nuclear paraspeckles, and foci at the sites of DNA damage. There are also many other nuclear liquid-like compartments. It was then asked whether lipoamide also affected these other bodies, using a panel of cell lines expressing GFP fusions. For this analysis, mitoxantrone was included as a representative of the heterotri-/tetracyclic compound class of hits (FIG. 1F). An overly-broad effect on liquid-like compartments would likely cause side-effects for a therapeutic.
The action of lipoamide is therefore specific to the signaling and/or physical chemistry driving stress granule formation, stress granule phase separation, and/or a specific signaling route. Stress granules normally form and dissolve rapidly in comparison to many other compartments.

FUS GFP [4] = test: Ex vivo DNA cut assay: FUS GFP recruitment to UV laser-induced DNA damage; assay type: cell-based, human
Excerpt: FUS is recruited to sites of DNA damage, and a potential mechanism contributing to ALS pathogenesis is reduced DNA damage response due to sequestration of FUS in the cytoplasm in stress granules. Strong association of FUS nuclear localization (NLS) mutations (e.g., P525L) with familial ALS mutations supports this hypothesis. The inventors therefore tested whether lipoamide affect FUS recruitment to sites of DNA damage induced by focused UV laser irradiation site, using arsenate-stressed iPSCs expressing FUS GFP (FIG. 4B). […] The action of lipoamide is therefore specific to cytoplasmic FUS liquid-like compartments, a therapeutically useful feature.
UV micro-irradiation of live cells was performed to induce DNA damage. KOLF iPS MNs expressing […] were […]. A single point in the nucleus was subject to 3 UV pulses as described for FRAP, but at 10% laser power. GFP fluorescence was imaged at 1 Hz, and intensity of response was analysed in ImageJ.

[5] = biological target: T2, FUS low complexity domain (residues 1 to 163) (Homo sapiens, UniProt P35637); test: 1H-15N HSQC NMR of FUS low complexity domain with compound; assay type: binding; conditions: 500 μM compound
T2 construct: untagged FUS low complexity domain (residues 1 to 163) expressed, purified and analysed; made in house
T2 sequence (P35637 1-163): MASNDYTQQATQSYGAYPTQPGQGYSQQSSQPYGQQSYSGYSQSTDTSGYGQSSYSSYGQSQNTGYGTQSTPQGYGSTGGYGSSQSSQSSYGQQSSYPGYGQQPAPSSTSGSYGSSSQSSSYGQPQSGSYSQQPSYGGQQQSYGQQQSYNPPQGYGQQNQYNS
Method: Finally, mechanistic detail was analyzed at the sub-molecular level by using NMR of the FUS prion-like N-terminal LCD to determine putative sites of lipoamide interaction. The LCD is able to phase separate to form condensates in vitro and the individual residues can be resolved and assigned in a ^1H-^15N heteronuclear single quantum coherence spectrum. ^1H-^15N analyses reveal a change in environment of individual residues as indicated by their corresponding chemical shifts. The magnitude of chemical shift changes were compared with and without both lipoamide or mitoxantrone. […] This leaves several possibilities: Perhaps lipoamide interacts with the FUS LCD only when phase separated, potentially reducing viscosity, or interacts with the condensate phase boundary, perhaps increasing surface tension. Such interactions may reduce formation or expansion of aggregated forms of FUS involved in condensate hardening and reduced liquidity.
For analysis of compound interaction with FUS untagged FUS low complexity domain (residues 1 to 163) expressed, purified and analysed using ^1H-^15N heteronuclear single quantum coherence NMR and sample conditions previously described^14 in the presence of 500 μM compound or equivalent DMSO solvent control (1%).

O=C1c2c(O)ccc(O)c2C(=O)c2c(NCCNCCO)ccc(NCCNCCO)c21 [mitoxantrone, reference compound]
FUS GFP droplet number, partition into droplets and droplet size (FUS GFP [1]): fewer smaller drops
nuclear/cytoplasm FUS partition, dose response [2]: decreased nuclear/cytoplasm FUS partition
stress granule number, dose response [2]: reducing stress granule number
disruption of P bodies (DCP1A), Cajal bodies (COIL), DNA damage foci (TRP53BP1), nucleolus (NCB1) ([3]; 1 h treatment with 10 μM compound): non-stress granule specific effects
localization of P-body, PML body and DNA damage focus proteins ([3]; conditions that would dissolve stress granules): affected all of these compartments to some extent
FUS GFP recruitment to sites of DNA damage (FUS GFP [4]; concentrations not sufficient to dissolve cytoplasmic FUS droplets): blocked recruitment of FUS GFP to sites of DNA damage
formation of nuclear FUS droplets at the sites of DNA damage (FIG. 4B legend) (FUS GFP [4]; iPS cells, arsenate stress): prevents formation of nuclear FUS droplets
chemical shift changes of FUS LCD residues [5]: weak shifts across the LCD
